The source made the active and inactive calls. The calls are words filed in the database; no cut-off is given here.
Tests used:
Malme-3M = experiment: Growth inhibition of human MALME-3M cells at 10 uM after 48 hrs by sulforhodamine B assay; assay type: functional; settings: read-out: GI
U-251 = experiment: Growth inhibition of human U251 cells at 10 uM after 48 hrs by sulforhodamine B assay; assay type: functional; settings: U-251, 48 h, read-out: GI
SNB-75 = experiment: Growth inhibition of human SNB75 cells at 10 uM after 48 hrs by sulforhodamine B assay; assay type: functional; settings: SNB-75, 48 h, read-out: GI
SNB-19 = experiment: Growth inhibition of human SNB19 cells at 10 uM after 48 hrs by sulforhodamine B assay; assay type: functional
SF-539 = experiment: Growth inhibition of human SF539 cells at 10 uM after 48 hrs by sulforhodamine B assay; assay type: functional; settings: SF-539, 48 h, read-out: GI
SF-295 = experiment: Growth inhibition of human SF295 cells at 10 uM after 48 hrs by sulforhodamine B assay; assay type: functional
KM12 = experiment: Growth inhibition of human KM12 cells at 10 uM after 48 hrs by sulforhodamine B assay; assay type: functional
SW-620 = experiment: Growth inhibition of human SW620 cells at 10 uM after 48 hrs by sulforhodamine B assay; assay type: functional
HT-29 = experiment: Growth inhibition of human HT-29 cells at 10 uM after 48 hrs by sulforhodamine B assay; assay type: functional; settings: HT-29, 48 h, read-out: GI
HCT-15 = experiment: Growth inhibition of human HCT15 cells at 10 uM after 48 hrs by sulforhodamine B assay; assay type: functional; settings: HCT-15, 48 h, read-out: GI
HCT-116 = experiment: Growth inhibition of human HCT116 cells at 10 uM after 48 hrs by sulforhodamine B assay; assay type: functional; settings: HCT-116, 48 h, read-out: GI
NCI-H522 = experiment: Growth inhibition of human NCI-H522 cells at 10 uM after 48 hrs by sulforhodamine B assay; assay type: functional; settings: NCI-H522, 48 h, read-out: GI
NCI-H460 = experiment: Growth inhibition of human NCI-H460 cells at 10 uM after 48 hrs by sulforhodamine B assay; assay type: functional
NCI-H322M = experiment: Growth inhibition of human NCI-H322M cells at 10 uM after 48 hrs by sulforhodamine B assay; assay type: functional
NCI-H226 = experiment: Growth inhibition of human NCI-H226 cells at 10 uM after 48 hrs by sulforhodamine B assay; assay type: functional
HOP-92 = experiment: Growth inhibition of human HOP92 cells at 10 uM after 48 hrs by sulforhodamine B assay; assay type: functional; settings: HOP-92, 48 h, read-out: GI
HOP-62 = experiment: Growth inhibition of human HOP62 cells at 10 uM after 48 hrs by sulforhodamine B assay; assay type: functional
A549 = experiment: Growth inhibition of human A549/ATCC cells at 10 uM after 48 hrs by sulforhodamine B assay; assay type: functional; settings: A549, 48 h, read-out: GI
SR = experiment: Growth inhibition of human SR cells at 10 uM after 48 hrs by sulforhodamine B assay; assay type: functional; settings: read-out: GI
RPMI-8226 = experiment: Growth inhibition of human RPMI8226 cells at 10 uM after 48 hrs by sulforhodamine B assay; assay type: functional; settings: RPMI-8226, 48 h, read-out: GI
MOLT-4 = experiment: Growth inhibition of human MOLT4 cells at 10 uM after 48 hrs by sulforhodamine B assay; assay type: functional; settings: MOLT-4, 48 h, read-out: GI
K562 = experiment: Growth inhibition of human K562 cells at 10 uM after 48 hrs by sulforhodamine B assay; assay type: functional
HL-60(TB) = experiment: Growth inhibition of human HL-60(TB) cells at 10 uM after 48 hrs by sulforhodamine B assay; assay type: functional
CCRF-CEM = experiment: Growth inhibition of human CCRF-CEM cells at 10 uM after 48 hrs by sulforhodamine B assay; assay type: functional; settings: read-out: GI
Carbonic anhydrase 9 = Carbonic anhydrase 9 (Homo sapiens, UniProt Q16790); experiment: Inhibition of human carbonic anhydrase 9 after 15 mins by stopped flow CO2 hydration assay
MDA-MB-468 = experiment: Growth inhibition of human MDA-MB-468 cells at 10 uM after 48 hrs by sulforhodamine B assay; assay type: functional
T47D = experiment: Growth inhibition of human T47D cells at 10 uM after 48 hrs by sulforhodamine B assay; assay type: functional
MDA-MB-231 = experiment: Growth inhibition of human MDA-MB-231 cells at 10 uM after 48 hrs by sulforhodamine B assay; assay type: functional
DU-145 = experiment: Growth inhibition of human DU145 cells at 10 uM after 48 hrs by sulforhodamine B assay; assay type: functional
PC-3 = experiment: Growth inhibition of human PC3 cells at 10 uM after 48 hrs by sulforhodamine B assay; assay type: functional; settings: PC-3, 48 h, read-out: GI
UO-31 = experiment: Growth inhibition of human UO31 cells at 10 uM after 48 hrs by sulforhodamine B assay; assay type: functional; settings: UO-31, 48 h, read-out: GI
TK-10 = experiment: Growth inhibition of human TK10 cells at 10 uM after 48 hrs by sulforhodamine B assay; assay type: functional
SN12C = experiment: Growth inhibition of human SN12C cells at 10 uM after 48 hrs by sulforhodamine B assay; assay type: functional
ACHN = experiment: Growth inhibition of human ACHN cells at 10 uM after 48 hrs by sulforhodamine B assay; assay type: functional
A498 = experiment: Growth inhibition of human A498 cells at 10 uM after 48 hrs by sulforhodamine B assay; assay type: functional
786-0 = experiment: Growth inhibition of human 786-0 cells at 10 uM after 48 hrs by sulforhodamine B assay; assay type: functional; settings: 786-0, 48 h, read-out: GI
SK-OV-3 = experiment: Growth inhibition of human SKOV3 cells at 10 uM after 48 hrs by sulforhodamine B assay; assay type: functional; settings: SK-OV-3, 48 h, read-out: GI
NCI/ADR-RES = experiment: Growth inhibition of human NCI-ADR-RES cells at 10 uM after 48 hrs by sulforhodamine B assay; assay type: functional
OVCAR-4 = experiment: Growth inhibition of human OVCAR4 cells at 10 uM after 48 hrs by sulforhodamine B assay; assay type: functional; settings: OVCAR-4, 48 h, read-out: GI
OVCAR-3 = experiment: Growth inhibition of human OVCAR3 cells at 10 uM after 48 hrs by sulforhodamine B assay; assay type: functional; settings: OVCAR-3, 48 h, read-out: GI
IGROV-1 = experiment: Growth inhibition of human IGROV1 cells at 10 uM after 48 hrs by sulforhodamine B assay; assay type: functional
UACC-257 = experiment: Growth inhibition of human UACC257 cells at 10 uM after 48 hrs by sulforhodamine B assay; assay type: functional
SK-MEL-5 = experiment: Growth inhibition of human SK-MEL-5 cells at 10 uM after 48 hrs by sulforhodamine B assay; assay type: functional
SK-MEL-28 = experiment: Growth inhibition of human SK-MEL-28 cells at 10 uM after 48 hrs by sulforhodamine B assay; assay type: functional, cell-based
MDA-MB-435 = experiment: Growth inhibition of human MDA-MB-435 cells at 10 uM after 48 hrs by sulforhodamine B assay; assay type: functional
M14 = experiment: Growth inhibition of human M14 cells at 10 uM after 48 hrs by sulforhodamine B assay; assay type: functional

`CCc1cc(CC)n(-c2ccncc2S(N)(=O)=O)n1` was tested, and the inhibition of growth at 10 µM (Malme-3M) was 9%, the inhibition of growth at 10 µM (U-251) was 1% and the inhibition of growth at 10 µM (SNB-75) was 3%. For the same molecule, the “growth inhibition (GI)” value (SNB-19) was “inactive”, the inhibition of growth at 10 µM (SF-539) was 4% and the “growth inhibition (GI)” value (SF-295) was “inactive”. For the same molecule, the “growth inhibition (GI)” value (KM12) was “inactive”, the “growth inhibition (GI)” value (SW-620) was “inactive” and the inhibition of growth at 10 µM (HT-29) was 1%. It also gave an inhibition of growth at 10 µM (HCT-15) of 4%, an inhibition of growth at 10 µM (HCT-116) of 1% and an inhibition of growth at 10 µM (NCI-H522) of 7%. For the same molecule, the “growth inhibition (GI)” value (NCI-H460) was “inactive”, the “growth inhibition (GI)” value (NCI-H322M) was “inactive” and the “growth inhibition (GI)” value (NCI-H226) was “inactive”. The inhibition of growth at 10 µM (HOP-92) was 1%, the “growth inhibition (GI)” value (HOP-62) was “inactive” and the inhibition of growth at 10 µM (A549) was 1%. For the same molecule, the inhibition of growth at 10 µM (SR) was 5%, the inhibition of growth at 10 µM (RPMI-8226) was 9% and the inhibition of growth at 10 µM (MOLT-4) was 2%. The “growth inhibition (GI)” value (K562) was “inactive”, the “growth inhibition (GI)” value (HL-60(TB)) was “inactive” and the inhibition of growth at 10 µM (CCRF-CEM) was 4%. The Ki (Carbonic anhydrase 9) was 31.7 nM, the “growth inhibition (GI)” value (MDA-MB-468) was “inactive” and the “growth inhibition (GI)” value (T47D) was “inactive”. The “growth inhibition (GI)” value (MDA-MB-231) was “inactive”, the “growth inhibition (GI)” value (DU-145) was “inactive” and the inhibition of growth at 10 µM (PC-3) was 1%. The inhibition of growth at 10 µM (UO-31) was 8%, the “growth inhibition (GI)” value (TK-10) was “inactive” and the “growth inhibition (GI)” value (SN12C) was “inactive”. For the same molecule, the “growth inhibition (GI)” value (ACHN) was “inactive”, the “growth inhibition (GI)” value (A498) was “inactive” and the inhibition of growth at 10 µM (786-0) was 2%. The inhibition of growth at 10 µM (SK-OV-3) was 6%, the “growth inhibition (GI)” value (NCI/ADR-RES) was “inactive” and the inhibition of growth at 10 µM (OVCAR-4) was 4%. The inhibition of growth at 10 µM (OVCAR-3) was 1%, the “growth inhibition (GI)” value (IGROV-1) was “inactive” and the “growth inhibition (GI)” value (UACC-257) was “inactive”. For the same molecule, the “growth inhibition (GI)” value (SK-MEL-5) was “inactive”, the “growth inhibition (GI)” value (SK-MEL-28) was “inactive” and the “growth inhibition (GI)” value (MDA-MB-435) was “inactive”. For the same molecule, the “growth inhibition (GI)” value (M14) was “inactive”.

— ChEMBL document CHEMBL2434896, “Carbonic anhydrase inhibitors. Synthesis of heterocyclic 4-substituted pyridine-3-sulfonamide derivatives and their inhibition of the human cytosolic isozymes I and II and transmembrane tumor-associated isozymes IX and XII” (Eur J Med Chem, 2013)
